Entries after “also recorded” stand apart in the source; their conditions may differ.
Key:
type 2 diabetes = conditions: cited from earlier work
aged mice = test: Aging-related phenotypes in aged mice after oral gavage; format: in vivo
From the text: In some embodiments, provided herein is the administration of VS as a pharmaceutical or nutraceutical composition to treat or prevent pathogenic senescence-related diseases (e.g., liver and lung fibrosis, atherosclerosis, diabetes, osteoarthritis, etc.). In some embodiments, provided herein is the administration of VS as a pharmaceutical or nutraceutical composition to treat or prevent various diverse human cancers, alone or in combination with anti-cancer therapies that result in therapy-induced senescence.

[1] = tested on: CCl4-induced liver fibrosis; test: CCl4-induced liver fibrosis; format: in vivo; conditions: FIG. 5A-D
[2] = tested on: human fibroblast BJ cells with therapy-induced senescence by doxorubicin; test: Screen for senolytic effect in cells with therapy-induced senescence; format: cell-based; conditions: senescent BJ cells versus control uninduced cells; FIG. 1A, 2A
Description: (§1) Experiments were conducted during development of embodiments herein to screen for diet-derived dietary substances, natural products, blood chemicals, etc. that provide senolytic activity with reduced “off-target” toxic side effects. A library of diet-derived blood chemicals was screened to identify compounds that selectively induce cell death in human fibroblast BJ cells with therapy-induced senescence by doxorubicin (FIG. 1A). The top candidates identified were tested in a second screen (FIG. 1B) using human fibroblast HCA2 cells with senescence induced by Nutlin3a (p53 activator), RO3306 (CDK1 inhibitor), and BI2436 (PLK1 inhibitor).
(§2) Experiments were conducted during development of embodiments herein to screen for natural products that provide senolytic activity. A library of diet-derived blood chemicals was screened to identify compounds that selectively induce cell death in human fibroblast BJ cells with therapy-induced senescence by doxorubicin (FIG. 1A). The top candidates identified were tested in a second screen (FIG. 1B) using human fibroblast HCA2 cells with senescence induced by Nutlin3a (p53 activator), RO3306 (CDK1 inhibitor), and BI2436 (PLK1 inhibitor). […] Temporal mechanistic studies of VS were also conducted (FIG. 8A-B).

senescent cells = test: Rescue of VS-induced cell death by NAC; format: cell-based; conditions: FIG. 7A-C
Description: as §2

[3] = tested on: apolipoprotein E-deficient (ApoE-/-) mice; test: Atherosclerosis model in ApoE-/- mice; format: in vivo
From the text: Atherosclerosis-prone apolipoprotein E-deficient (ApoE^−/−) mice were used that display poor lipoprotein clearance with subsequent accumulation of cholesterol ester-enriched particles in the blood, which promote the development of atherosclerotic plaques. Compared to wild type control mice with no disease (WT-ND), the ApoE−/− mice developed atherosclerosis-like disease with accumulation of cholesterol that was stained with Sudan IV showing orange-red color (FIG. 9A, left).

[4] = tested on: bleomycin-induced lung fibrosis; test: Bleomycin-induced lung fibrosis; format: in vivo; conditions: FIG. 4A-D
animal models = conditions: cited from earlier work
[5] = tested on: human fibroblast HCA2 cells with senescence induced by Nutlin3a, RO3306 and BI2436; test: Second screen for senolytic effect in induced-senescent HCA2 cells; format: cell-based; conditions: senescent HCA2 cells versus control uninduced cells; FIG. 1B, 2B
Description: as §1, §2

A549 xenograft = A549 xenograft model combined with senescence induction; format: in vivo; conditions: FIG. 6A-B
[6] = aged mice, oral gavage, kidney tissues

O=S(=O)([O-])[O-].[O]=[V+2] [VS, vanadyl sulfate]
hepatic and muscle insulin sensitivity (type 2 diabetes): improve
aging / senescent cells in vivo (aged mice; FIG. 3A-F): ameliorates aging by eliminating senescent cells
aging-related phenotypes (aged mice; aged mice, oral gavage): improved
serum urea levels (aged mice; aged mice, oral gavage): reducing
gene expression level of CDK inhibitor p16INK4a (aged mice; [6]): reducing
gene expression level of inflammatory cytokine IL-6 (aged mice; [6]): reducing
therapeutic efficacy in CCl4-induced liver fibrosis [1]: shows therapeutic efficacy
cell death in senescent BJ cells [2]: selectively triggers cell death; also recorded: selectively induced cell death
rescue of VS-induced cell death by NAC (senescent cells): can be rescued by NAC
accumulation of cholesterol in atherosclerotic plaques ([3]; ApoE-/- mice, Sudan IV staining, quantitation, FIG. 9A): reduced
overall total cholesterol level ([3]; ApoE-/- mice, FIG. 9B): reduced
therapeutic efficacy in atherosclerosis model ([3]; FIG. 9A-B): provides therapeutic efficacy
therapeutic efficacy in bleomycin-induced lung fibrosis [4]: shows therapeutic efficacy
hyperglycemia (animal models): reduce
insulin resistance (animal models): reduce
cell death in senescent HCA2 cells [5]: selectively triggers cell death; also recorded: selectively induced cell death
tumor growth (A549 xenograft): suppresses tumor growth

— patent publication US20250213608A1, “VANADYL SULFATE COMPOSITIONS AND METHODS OF USE THEREFOR FOR THE TREATEMENT AND PREVENTION OF AGING-RELATED DISEASES AND CANCER” (The University of Chicago, priority 2022, published 2025)
